Measured values from patent publication US20220117945A1, “ISOXAZOLE CARBOXAMIDE COMPOUNDS AND USES THEREOF” (NOVARTIS AG, priority 2017, published 2022).

Assays:
[1] = tested on: 6-day-postnatal mouse cochlea explants with hair cell damage; assay: Ex vivo hair cell induction assay using 6-day-postnatal mouse cochlea explants with hair cell damage; type: cell-based; conditions: P6 Atoh1-GFP mouse cochlea explants, neomycin-damaged; 3 to 10 μM compound for 8 days, then 4 days blank medium; mean ± SD; DMSO = 0%; more than 20% considered significant
Experimental: (§1) Compounds of the present disclosure were assessed for their ability to increase the Atoh1 expression in mouse cerebellar neural precursor cells. The ability of compounds of the present disclosure to induce new hair cell formation was assessed in ex vivo hair cell induction assay using 6-day-postnatal mouse cochlea explants with hair cell damage.
Ex Vivo Hair Cell Induction Assay Using 6-Day-Postnatal Mouse Cochlea Explants with Hair Cell Damage
P6, postnatal 6 days, Atoh1-GFP mice, the same mouse strain used for Atoh1 induction assay described before, were used in this assay. The otic capsule was exposed and the cochleae were micro-dissected. […] and in vitro cultured in serum free medium (culture medium: DMEM/F12+1% N2+2% B27+5 μg/ml ampicillin) at 37° C. under a standard gas atmosphere of humidified air/5% CO2. Inner ear hair cells were damaged by 1 mM Neomycin treatment for 1.25 h. After the neomycin treatment, explants were cultured in blank culture medium for 7 days before the treatment of selected compounds.
For compound administration, the cochlea explants were treated with 3 to 10 μM compound of the present disclosure, with DMSO as the negative control for 8 days with once compound/medium change. After 8 days treatment, the tested compound was removed. The explants were cultured in blank medium for additional 4 days. The cochlea explant cultures then were fixed with 4% w/v formalin and processed for Myo7a immunofluorescence (Myo7a is a specific marker for sensory hair cell) using the rabbit anti-Myo7a antibody (Protus Biosci #25-6790, 1:250 diluted in PBS containing 3% BSA). Rhodamine labeled Goat-anti-rabbit IgG (Molecular Prob. #R6394, 1:1000 diluted in PBS containing 3% BSA) was used as the secondary antibody to visualize the Myo7a positive cells. The images were collected and analyzed using the EVOS image system (Thermo-Fisher Scientific). […] The hair cell identity of the ectopically formed cells was confirmed by staining the cells with multiple hair cell markers.
The efficacy of hair cells induction in this assay is represented by the responsive length percentage of Atoh1 and Myo7a double positive cells in the damaged whole explants after compound treatment. The responsive length percentage was calculated according to the equation of ((the explant length with Atoh1 and Myo7a double positive cells/the full length of cochlea explant)*100%). Note the value of DMSO control is 0% due to total damage of hair cells, and any responsive length percentage more than 20% is considered as significant hair cell induction.

[2] = tested on: Atoh1 expression in mouse cerebellar neural precursor cells; assay: Atoh1 induction assay in mouse cerebellar neural precursor cells (NPCs), Atoh1-GFP reporter; type: cell-based; conditions: 10 doses 50 μM to 200 nM, 72 hours treatment, DMSO control = 1, more than 5 considered significant, read-out: fold difference (maximum fold difference of GFP average intensity in cell nuclei over the DMSO control)
Experimental: as §1
Atoh1 Induction Assay in Mouse Cerebellar Neural Precursor Cells (NPCs)
Atoh1 induction assay was conducted with in vitro cultured cerebellar neural precursor cells isolated from neonatal transgenic Atoh1-GFP mice. Atoh1 expression is mainly regulated by the enhancer, and the nuclear GFP was driven by the cloned enhancer sequence at 3′ of Atoh1 which had high conservation among mammalians. So Atoh1 induction could be reflected by GFP activation in cerebellar neural precursor cells (Helms et al., Development 2000; 127: 1185-1196; Lumpkin et al., Gene Expression Patterns 2003; 3: 389-395). Postnatal 3 days pups were dissected for cerebellum tissue isolation. The cerebellum tissue was cut into small pieces, and dissociated with 0.05% Trypsin for about 10 minutes at 37° C., and then filtered with a 70 uM cell strainer. The cells were cultured as neuropsheres for the first 2 days in ultra-low attachment dish/well-plate with DMEM/F12+1% N2 &2% B27 with 1% P/S, 20 ng/ml rhFGF2 and 20 ng/ml rhEGF (R&D Systems). Then the spheres were plated to the matrigel (1:30 diluted in DMEM/F12)-coated tissue culture dish for monolayer culture. After 4.5-5.5 days culture in vitro (DIV), cells were dissociated with 0.05% trypsin into single cells, and frozen after cell number calculation.
The cerebellar neural precursor cells (NPCs) were re-thawed from stock and cultured for another 2 days before used for Atoh1 induction assay. On the first day of assay, NPCs were seeded into matrigel-coated 384 well plates (Black view-plate, PE) at 2500 cells/well. After over-night culture, the NPCs were treated with representative compounds of the present disclosure with 1:2 serial dilutions for 10 doses, from 50 μM to 200 nM, with DMSO as negative control. After 72 hours treatment without medium change, the cells were fixed with 4% formalin for staining. Assay plates were stained with GFP antibody (Abcam, #13970, 1:1000) to amplify endogenous GFP signal and then read by Cellomics.

CN1CCN(CCCCCNC(=O)c2cc(-c3cccs3)on2)CC1 [Example 8, N-(5-(4-Methylpiperazin-1-yl)pentyl)-5-(thiophen-2-yl)isoxazole-3-carboxamide]
Responsive length % (explant length with Atoh1 and Myo7a double positive cells / full length of cochlea explant) [1]: 54.0 ± 6.3% | maximal fold induction [2]: 30.9

CN1CCN(CCCCCNC(=O)c2cc(-c3ccc(F)cc3)on2)CC1 [Example 10, 5-(4-Fluorophenyl)-N-(5-(4-methylpiperazin-1-yl)pentyl)isoxazole-3-carboxamide]
Responsive length % (explant length with Atoh1 and Myo7a double positive cells / full length of cochlea explant) [1]: 59.1 ± 9.1% | maximal fold induction [2]: 17.6

O=C(NCCCCCN1CC2CCC(C1)N2)c1cc(-c2cccs2)on1 [Example 11, N-(5-(3,8-Diazabicyclo[3.2.1]octan-3-yl)pentyl)-5-(thiophen-2-yl)isoxazole-3-carboxamide]
Responsive length % (explant length with Atoh1 and Myo7a double positive cells / full length of cochlea explant) [1]: 51.7 ± 8.1% | maximal fold induction [2]: 12.4

CN1C2CCC1CN(CCCCCNC(=O)c1cc(-c3cccs3)on1)C2 [Example 12, N-(5-(8-Methyl-3,8-diazabicyclo[3.2.1]octan-3-yl)pentyl)-5-(thiophen-2-yl)isoxazole-3-carboxamide]
Responsive length % (explant length with Atoh1 and Myo7a double positive cells / full length of cochlea explant) [1]: 39.7 ± 8.2% | maximal fold induction [2]: 21.1

CC1CN(CCCCCNC(=O)c2cc(-c3cccs3)on2)CC(C)N1 (centres unmarked) [Example 14, N-(5-(3,5-Dimethylpiperazin-1-yl)pentyl)-5-(thiophen-2-yl)isoxazole-3-carboxamide]
Responsive length % (explant length with Atoh1 and Myo7a double positive cells / full length of cochlea explant) [1]: 45.3 ± 6.7% | maximal fold induction [2]: 29.1

CC1CN(CCCCCNC(=O)c2cc(-c3cccs3)on2)CC(C)N1C (centres unmarked) [Example 15, 5-(Thiophen-2-yl)-N-(5-(3,4,5-trimethylpiperazin-1-yl)pentyl)isoxazole-3-carboxamide]
Responsive length % (explant length with Atoh1 and Myo7a double positive cells / full length of cochlea explant) [1]: 50.1 ± 9.9% | maximal fold induction [2]: 15.3

COC(=O)NC1CN(CCCCCNC(=O)c2cc(-c3cccs3)on2)C1 [Example 17, Methyl (1-(5-(5-(thiophen-2-yl)isoxazole-3-carboxamido)pentyl)azetidin-3-yl)carbamate]
Responsive length % (explant length with Atoh1 and Myo7a double positive cells / full length of cochlea explant) [1]: 52.9 ± 6.8% | maximal fold induction [2]: 34.6

NC(=O)C1CN(CCCCCNC(=O)c2cc(-c3cccs3)on2)C1 [Example 27, N-(5-(3-Carbamoylazetidin-1-yl)pentyl)-5-(thiophen-2-yl)isoxazole-3-carboxamide]
Responsive length % (explant length with Atoh1 and Myo7a double positive cells / full length of cochlea explant) [1]: 66.0 ± 2.4% | maximal fold induction [2]: 33.7

O=C(NCCCCCN1CC[C@H](O)C1)c1cc(-c2cccs2)on1 [Example 36]
Responsive length % (explant length with Atoh1 and Myo7a double positive cells / full length of cochlea explant) [1]: 28.1 ± 6.3% | maximal fold induction [2]: 15.7

CC(=O)N1CCN(CCCCCNC(=O)c2cc(-c3cccs3)on2)CC1 [Example 40]
Responsive length % (explant length with Atoh1 and Myo7a double positive cells / full length of cochlea explant) [1]: 36.9 ± 7.4% | maximal fold induction [2]: 21.5

C[C@@H]1CN(CCCCCNC(=O)c2cc(-c3cccs3)on2)C[C@H](C)O1 [Example 42]
Responsive length % (explant length with Atoh1 and Myo7a double positive cells / full length of cochlea explant) [1]: 28.8 ± 8.3% | maximal fold induction [2]: 23.7

O=C(NCCCCCN1CC[C@H](F)C1)c1cc(-c2cccs2)on1 [Example 45, (S)—N-(5-(3-fluoropyrrolidin-1-yl)pentyl)-5-(thiophen-2-yl)isoxazole-3-carboxamide]
Responsive length % (explant length with Atoh1 and Myo7a double positive cells / full length of cochlea explant) [1]: 51.9 ± 14.9% | maximal fold induction [2]: 24

COC1CN(CCCCCNC(=O)c2cc(-c3cccs3)on2)C1 [Example 47]
Responsive length % (explant length with Atoh1 and Myo7a double positive cells / full length of cochlea explant) [1]: 64.4 ± 17.2% | maximal fold induction [2]: 27.8

O=C(NCCCCCN1CC(O)C1)c1cc(-c2cccs2)on1 [Example 48]
Responsive length % (explant length with Atoh1 and Myo7a double positive cells / full length of cochlea explant) [1]: 75.8 ± 4.5% | maximal fold induction [2]: 37.5

N#CCC1CN(CCCCCNC(=O)c2cc(-c3cccs3)on2)C1 [Example 49]
Responsive length % (explant length with Atoh1 and Myo7a double positive cells / full length of cochlea explant) [1]: 47.5 ± 9.2% | maximal fold induction [2]: 37.1

O=C(NCCCCCN1CC2CCC(C1)O2)c1cc(-c2cccs2)on1 [Example 51, N-(5-(8-oxa-3-azabicyclo[3.2.1]octan-3-yl)pentyl)-5-(thiophen-2-yl)isoxazole-3-carboxamide]
Responsive length % (explant length with Atoh1 and Myo7a double positive cells / full length of cochlea explant) [1]: 48.6 ± 3.0% | maximal fold induction [2]: 9.9

CN1CC2CCC1CN2CCCCCNC(=O)c1cc(-c2cccs2)on1 (centres unmarked) [Example 52, N-(5-(5-methyl-2,5-diazabicyclo[2.2.2]octan-2-yl)pentyl)-5-(thiophen-2-yl)isoxazole-3-carboxamide]
Responsive length % (explant length with Atoh1 and Myo7a double positive cells / full length of cochlea explant) [1]: 28.2 ± 11.9% | maximal fold induction [2]: 26.7

O=C(NCCCCCN1CCC(F)CC1)c1cc(-c2cccs2)on1 [Example 53]
Responsive length % (explant length with Atoh1 and Myo7a double positive cells / full length of cochlea explant) [1]: 34.7 ± 9.8% | maximal fold induction [2]: 22.9

O=C(NCCCCCN1CCN(CCO)CC1)c1cc(-c2cccs2)on1 [Example 54, N-(5-(4-(2-hydroxyethyl)piperazin-1-yl)pentyl)-5-(thiophen-2-yl)isoxazole-3-carboxamide]
Responsive length % (explant length with Atoh1 and Myo7a double positive cells / full length of cochlea explant) [1]: 35.6 ± 11.8% | maximal fold induction [2]: 27.8

O=C(NCCCCCN1CC(CO)C1)c1cc(-c2cccs2)on1 [Example 55]
Responsive length % (explant length with Atoh1 and Myo7a double positive cells / full length of cochlea explant) [1]: 53.1 ± 6.2% | maximal fold induction [2]: 29

N#CC1CCN(CCCCCNC(=O)c2cc(-c3cccs3)on2)CC1 [Example 56]
Responsive length % (explant length with Atoh1 and Myo7a double positive cells / full length of cochlea explant) [1]: 26.5 ± 9.4% | maximal fold induction [2]: 36.9

O=C(NCCCCCN1CC(F)C1)c1cc(-c2cccs2)on1 [Example 59]
Responsive length % (explant length with Atoh1 and Myo7a double positive cells / full length of cochlea explant) [1]: 54.1 ± 5.8% | maximal fold induction [2]: 29.1

NC(=O)C1CN(CCCCCNC(=O)c2cc(-c3ccc(F)cc3)on2)C1 [Example 65, N-(5-(3-carbamoylazetidin-1-yl)pentyl)-5-(4-fluorophenyl)isoxazole-3-carboxamide]
Responsive length % (explant length with Atoh1 and Myo7a double positive cells / full length of cochlea explant) [1]: 43.1 ± 7.6% | maximal fold induction [2]: 29.8

N#CCC1CN(CCCCCNC(=O)c2cc(-c3ccc(F)cc3)on2)C1 [Example 66]
Responsive length % (explant length with Atoh1 and Myo7a double positive cells / full length of cochlea explant) [1]: 61.5 ± 6.0% | maximal fold induction [2]: 25.1

O=C(NCCCCCN1CC(O)C1)c1cc(-c2ccc(F)cc2)on1 [Example 67]
Responsive length % (explant length with Atoh1 and Myo7a double positive cells / full length of cochlea explant) [1]: 58.2 ± 3.5% | maximal fold induction [2]: 18.9
